Several values for one entry are separate records, joined by “and”; a condition that tells them apart may be missing. Equal entries are not always repeated. In the oligonucleotide strings, read from the 5' end, every base follows the letter of its sugar. An asterisk marks phosphorothioate; unmarked linkages are phosphodiester. Other units and linkages are bracketed, terminal groups are in braces. A string of capitals states the bases alone. e = 2'-O-(2-methoxyethyl) (MOE); [5mC] = 5-methylcytosine; d = 2'-deoxy (DNA)
How the values were obtained:
HeLa cells = experiment: Cell cycle assay in HeLa cells; format: cell-based, human; settings: HeLa cells, 150 nM oligomeric compound; for % cells aneuploid / % cells in cell cycle phase G1 / % cells in cell cycle phase G2/M / % cells in cell cycle phase S / % cells in cell cycle phase subG1: 24 hours, relative to untreated control (UTC = 100); for % cells in cell cycle phase: G1 / % cells in cell cycle phase: G2/M / % cells in cell cycle phase: S / % cells in cell cycle phase: aneuploid / % cells in cell cycle phase: subG1: 48 hours after treatment, relative to untreated control (UTC=100)
PEPCK-c = PEPCK-c mRNA expression in HepG2 cells; format: cell-based, human; settings: for PEPCKc mRNA expression: Experiment 2, insulin treated: HepG2 cells transfected with oligomeric compound, 1 nM insulin for four hours, UTC + 1 nM insulin = 100; for PEPCK-c (% UTC): HepG2, 100 nM oligomeric compound; for PEPCKc mRNA: HepG2 cells, four hours, UTC = 100
[1] = Experiment 1, basal (no insulin)
[2] = Experiment 2, 1 nM insulin treated

In the case of “328115 (antisense eA*eG*eA*eA*eG*eG*eT*eG*eG*eG*eG*eA*eG*e[5mC]*eA*eG*e[5mC]*eG*eT*e[5mC]*eA) [compound 328115]”, the “% cells aneuploid” value (HeLa cells) is reported as 59%, the “% cells in cell cycle phase G1” value (HeLa cells) is reported as 90% and the “% cells in cell cycle phase G2/M” value (HeLa cells) is reported as 147%. The “% cells in cell cycle phase S” value (HeLa cells) was 87%, the “% cells in cell cycle phase subG1” value (HeLa cells) was 177% and the “% cells in cell cycle phase: G1” value (HeLa cells) was 92%. For the same substance, the “% cells in cell cycle phase: G2/M” value (HeLa cells) was 107%, the “% cells in cell cycle phase: S” value (HeLa cells) was 114% and the “% cells in cell cycle phase: aneuploid” value (HeLa cells) was 86%. For the same substance, the “% cells in cell cycle phase: subG1” value (HeLa cells) was 195% and the “PEPCKc mRNA expression” value (PEPCK-c) was 59.
For “340927 (antisense eT*eG*eA*eG*e[5mC]*dT*dA*d[5mC]*dA*dG*dT*dG*d[5mC]*dT*dT*e[5mC]*eA*eT*e[5mC]*eT*e[5mC]*eA) [compound 340927]”, the “% cells aneuploid” value (HeLa cells) was 88% and 87%, the “% cells in cell cycle phase G1” value (HeLa cells) was 121% and 128% and the “% cells in cell cycle phase G2/M” value (HeLa cells) was 111% and 106%. The “% cells in cell cycle phase S” value (HeLa cells) was 75% and 71%, the “% cells in cell cycle phase subG1” value (HeLa cells) was 118% and 131% and the “% cells in cell cycle phase: G1” value (HeLa cells) was 91%. The “% cells in cell cycle phase: G2/M” value (HeLa cells) was 121% and 122%, the “% cells in cell cycle phase: S” value (HeLa cells) was 107% and the “% cells in cell cycle phase: aneuploid” value (HeLa cells) was 113% and 108%. For the same substance, the “% cells in cell cycle phase: subG1” value (HeLa cells) was 95% and 83%, the “PEPCK-c (% UTC)” value (PEPCK-c; [1]) was 87 % UTC and the “PEPCK-c (% UTC)” value (PEPCK-c; [2]) was 103 % UTC.
“327897 (antisense eA*e[5mC]*eA*eG*eG*e[5mC]*e[5mC]*eG*eG*eG*eA*e[5mC]*eA*eA*eG*eT*eG*e[5mC]*eA*eA*eT*eA) [compound 327897]” was tested, and the “% cells aneuploid” value (HeLa cells) was 69% and 54%, the “% cells in cell cycle phase G1” value (HeLa cells) was 114% and 128% and the “% cells in cell cycle phase G2/M” value (HeLa cells) was 115% and 100%. The “% cells in cell cycle phase S” value (HeLa cells) was 80% and 74%, the “% cells in cell cycle phase subG1” value (HeLa cells) was 143% and 180% and the “% cells in cell cycle phase: G1” value (HeLa cells) was 100% and 94%. For the same substance, the “% cells in cell cycle phase: G2/M” value (HeLa cells) was 95% and 105%, the “% cells in cell cycle phase: S” value (HeLa cells) was 103% and 114% and the “% cells in cell cycle phase: aneuploid” value (HeLa cells) was 84% and 63%. The “% cells in cell cycle phase: subG1” value (HeLa cells) was 134% and 125%, the “PEPCKc mRNA expression” value (PEPCK-c) was 78 and the “PEPCKc mRNA” value (PEPCK-c; [1]) was 72.
With “327901 (antisense eT*eG*eA*eG*e[5mC]*eT*eA*e[5mC]*eA*eG*eT*eG*e[5mC]*eT*eT*e[5mC]*eA*eT*e[5mC]*eT*e[5mC]*eA) [compound 327901]” the “% cells aneuploid” value (HeLa cells) was 90%, the “% cells in cell cycle phase G1” value (HeLa cells) was 101% and the “% cells in cell cycle phase G2/M” value (HeLa cells) was 110%. The “% cells in cell cycle phase S” value (HeLa cells) was 94%, the “% cells in cell cycle phase subG1” value (HeLa cells) was 108% and the “% cells in cell cycle phase: G1” value (HeLa cells) was 98%. The “% cells in cell cycle phase: G2/M” value (HeLa cells) was 103%, the “% cells in cell cycle phase: S” value (HeLa cells) was 104% and the “% cells in cell cycle phase: aneuploid” value (HeLa cells) was 104%. The “% cells in cell cycle phase: subG1” value (HeLa cells) was 93%, the “PEPCK-c (% UTC)” value (PEPCK-c; [1]) was 119 % UTC and the “PEPCK-c (% UTC)” value (PEPCK-c; [2]) was 117 % UTC.
For “327889 (antisense eG*eT*eG*eG*eT*eA*eA*eT*e[5mC]*e[5mC]*e[5mC]*eT*eG*eG*e[5mC]*eA*eA*eT*eG*eT*eG*eA*eT) [compound 327889]”, the “% cells aneuploid” value (HeLa cells) was 82%, the “% cells in cell cycle phase G1” value (HeLa cells) was 104% and the “% cells in cell cycle phase G2/M” value (HeLa cells) was 87%. The “% cells in cell cycle phase S” value (HeLa cells) was 102%, the “% cells in cell cycle phase subG1” value (HeLa cells) was 122% and the “% cells in cell cycle phase: G1” value (HeLa cells) was 78%. The “% cells in cell cycle phase: G2/M” value (HeLa cells) was 130%, the “% cells in cell cycle phase: S” value (HeLa cells) was 137% and the “% cells in cell cycle phase: aneuploid” value (HeLa cells) was 101%. For the same substance, the “% cells in cell cycle phase: subG1” value (HeLa cells) was 133%, the “PEPCK-c (% UTC)” value (PEPCK-c; [1]) was 137 % UTC and the “PEPCK-c (% UTC)” value (PEPCK-c; [2]) was 202 % UTC.
In the case of “327885 (antisense eA*e[5mC]*eT*eA*e[5mC]*e[5mC]*eT*eG*e[5mC]*eA*e[5mC]*eT*eG*eT*eA*eA*eG*e[5mC]*eA*e[5mC]*eT*eT*eT*eG) [compound 327885]”, the “% cells aneuploid” value (HeLa cells) is reported as 55%, the “% cells in cell cycle phase G1” value (HeLa cells) is reported as 129% and the “% cells in cell cycle phase G2/M” value (HeLa cells) is reported as 121%. For the same substance, the “% cells in cell cycle phase S” value (HeLa cells) was 63%, the “% cells in cell cycle phase subG1” value (HeLa cells) was 151% and the “% cells in cell cycle phase: G1” value (HeLa cells) was 78%. The “% cells in cell cycle phase: G2/M” value (HeLa cells) was 133%, the “% cells in cell cycle phase: S” value (HeLa cells) was 129% and the “% cells in cell cycle phase: aneuploid” value (HeLa cells) was 76%. For the same substance, the “% cells in cell cycle phase: subG1” value (HeLa cells) was 456% and the “PEPCKc mRNA” value (PEPCK-c; [1]) was 73.
